One assay deals with T1, FLT3 ITD (Homo sapiens, UniProt P36888, ITD).
T1 sequence (P36888 564-993): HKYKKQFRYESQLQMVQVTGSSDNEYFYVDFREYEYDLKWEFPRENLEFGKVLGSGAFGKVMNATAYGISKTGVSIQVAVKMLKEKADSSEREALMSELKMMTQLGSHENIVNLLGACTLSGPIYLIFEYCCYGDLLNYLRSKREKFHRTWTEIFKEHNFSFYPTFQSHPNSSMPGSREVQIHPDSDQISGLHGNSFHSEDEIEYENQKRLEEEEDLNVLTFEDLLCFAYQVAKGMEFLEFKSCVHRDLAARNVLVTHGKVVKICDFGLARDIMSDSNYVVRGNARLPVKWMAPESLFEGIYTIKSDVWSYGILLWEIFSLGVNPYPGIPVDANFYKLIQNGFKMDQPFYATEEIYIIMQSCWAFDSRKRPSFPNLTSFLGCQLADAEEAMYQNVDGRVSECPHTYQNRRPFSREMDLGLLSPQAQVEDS
Description: DiscoverX KINOMEscan competition binding assay, FLT3 ITD. An excerpt: (§1) Kinase binding data were obtained for various exemplary compounds prepared according to Examples 1-25 using the DiscoverX KINOMEscan® active site-directed competition binding site-directed assay protocol described below. […] As a result, the data report thermodynamic interaction affinities (Kd values), rather than IC50 values that are dependent on ATP concentrations. The assay uses a DNA-tagged version of the protein kinase, and an immobilized ligand bound to a solid support. Compounds that directly or indirectly prevent kinase binding to the immobilized ligand reduce the amount of kinase captured on the solid support, which is detected using an ultra-sensitive qPCR method. Affinity constants reported from the assay have been reported to be independent of the immobilized ligand used that is coupled to the solid support (See supplemental information in Fabian, M. A. et. al., (2005) Nat. Biotechnol. 23, 329-336; Wodicka, L. M. et. al., (2010) Chem. Biol. 17, 1241-1249.)
(§2) Kinase-tagged T7 phage strains were prepared in an E. coli host derived from the BL21 strain. E. coli were grown to log-phase and infected with T7 phage and incubated with shaking at 32° C. until lysis. The lysates were centrifuged and filtered to remove cell debris. The remaining kinases were produced in HEK-293 cells and subsequently tagged with DNA for qPCR detection. […] The liganded beads were blocked with excess biotin and washed with blocking buffer (SeaBlock (Pierce), 1% BSA, 0.05% Tween 20, 1 mM DTT) to remove unbound ligand and to reduce non-specific binding. […] Test compounds were prepared as 111× stocks in 100% DMSO. Kds were determined using an 11-point 3-fold compound dilution series with three DMSO control points. […] The compounds were then diluted directly into the assays such that the final concentration of DMSO was 0.9%. All reactions were performed in polypropylene 384-well plates. Each was a final volume of 0.02 mL. […] The kinase concentration in the eluates was measured by qPCR.
(§3) Binding constants (Kds) were calculated with a standard dose-response curve using the Hill equation. […]

The target of another assay is T2, FLT3 K663Q (Homo sapiens, UniProt P36888, K663Q).
T2 construct: purchased DiscoverX (KINOMEscan); host or cells: E. coli (T7 phage) or HEK-293
T2 sequence (P36888 27-993 K663Q): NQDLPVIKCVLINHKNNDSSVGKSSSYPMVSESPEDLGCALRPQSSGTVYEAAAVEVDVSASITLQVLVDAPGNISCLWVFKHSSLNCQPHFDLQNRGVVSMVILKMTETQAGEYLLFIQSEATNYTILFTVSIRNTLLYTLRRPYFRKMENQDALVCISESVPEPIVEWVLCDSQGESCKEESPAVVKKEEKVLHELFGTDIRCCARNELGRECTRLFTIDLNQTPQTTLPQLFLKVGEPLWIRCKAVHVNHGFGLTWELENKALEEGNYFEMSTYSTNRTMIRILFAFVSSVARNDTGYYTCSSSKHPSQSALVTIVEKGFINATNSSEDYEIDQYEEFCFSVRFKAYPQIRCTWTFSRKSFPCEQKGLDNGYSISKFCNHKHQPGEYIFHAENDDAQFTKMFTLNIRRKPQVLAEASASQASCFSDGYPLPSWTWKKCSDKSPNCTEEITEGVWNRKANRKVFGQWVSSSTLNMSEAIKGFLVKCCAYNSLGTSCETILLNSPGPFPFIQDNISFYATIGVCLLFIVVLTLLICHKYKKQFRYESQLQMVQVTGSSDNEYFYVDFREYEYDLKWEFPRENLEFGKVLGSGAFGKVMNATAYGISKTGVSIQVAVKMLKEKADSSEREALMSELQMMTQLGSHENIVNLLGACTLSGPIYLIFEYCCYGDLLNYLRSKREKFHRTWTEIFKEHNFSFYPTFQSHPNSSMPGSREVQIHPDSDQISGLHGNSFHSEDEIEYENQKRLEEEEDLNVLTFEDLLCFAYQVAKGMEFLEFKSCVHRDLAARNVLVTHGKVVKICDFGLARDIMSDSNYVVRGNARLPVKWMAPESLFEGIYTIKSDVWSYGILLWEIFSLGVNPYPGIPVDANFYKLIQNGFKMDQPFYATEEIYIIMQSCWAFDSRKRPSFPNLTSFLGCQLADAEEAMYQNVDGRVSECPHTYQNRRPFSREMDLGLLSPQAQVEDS
Description: DiscoverX KINOMEscan competition binding assay, FLT3 K663Q.
From the text: as §1, §2, §3

A further assay deals with T3, FLT3 Autoinh. (Homo sapiens, UniProt P36888).
T3 construct: purchased DiscoverX (KINOMEscan); host or cells: E. coli (T7 phage) or HEK-293
T3 sequence (P36888 564-993 limits assumed): T1 sequence (P36888 564-993)
Description: DiscoverX KINOMEscan competition binding assay, FLT3 Autoinh.
From the text: as §1, §2, §3

Each structure is given as a SMILES string. Like-named read-outs stand apart in the source and are kept apart here.

Broadly, the Kd is a measure of binding affinity in units of concentration. Consider `COc1cc2ncc(-c3cccc(N[C@@H]4CCNC4)n3)n2nc1C1CC1` [Compound 97, (R)-6-(6-cyclopropyl-7-methoxyimidazo[1,2-b]pyridazin-3-yl)-N-(pyrrolidin-3-yl)pyridin-2-amine], for which the figures for the Kd at FLT3 ITD (read-out: FLT3 ITD Kd), on FLT3 K663Q and at FLT3 Autoinh. were 0.19 nM, 1.4 nM and 13 nM, respectively.
On the same counts, the results for `COc1cc2ncc(-c3cccc(N[C@H]4CNCC[C@@H]4F)n3)n2nc1C1CC1` [Compound 102, 6-(6-cyclopropyl-7-methoxyimidazo[1,2-b]pyridazin-3-yl)-N-((3S,4S)-4-fluoropiperidin-3-yl)pyridin-2-amine] are 0.54 nM, 0.37 nM and 17 nM.
Take `COc1cc2ncc(-c3cccc(N[C@H]4CNC[C@@H]4F)n3)n2nc1C1CC1` [Compound 96, 6-(6-cyclopropyl-7-methoxyimidazo[1,2-b]pyridazin-3-yl)-N-((3S,4S)-4-fluoropyrrolidin-3-yl)pyridin-2-amine]: the Kd was 1 nM at FLT3 ITD, 0.6 nM at FLT3 K663Q and 11 nM on FLT3 Autoinh..

(Values after patent publication US12534469B2 (CHILDREN'S HOSPITAL MEDICAL CENTER, priority 2020, dated 2026).)
